Source: patent US20240294491A1, “SALT OF HETEROCYCLIC COMPOUND WITH ANTI-MALARIA ACTIVITY, AND CRYSTALS THEREOF” (priority 2021, published 2024)
Values joined by “and” are separate entries in the source; they are usually repeats but may differ in a detail not shown here. Equal entries are not always repeated.

Key:
[1] = test system: Pf3D7^0087N9 strain of Plasmodium falciparum; assay: drug efficacy evaluation with a humanized mouse malaria model; assay type: in vivo; settings: humanized NSG mice, oral once per day for 3 days, treatment initiated 72 hours after infection, infection rate by flow cytometry
Protocol: The following drug efficacy evaluation with a humanized mouse malaria model was carried out by The Art of Discovery S. L. (Vizcaya, Spain) with use of compound (I). In short, erythrocytes infected with Plasmodium falciparum were intravenously inoculated into mice with transplanted human erythrocytes, and drug treatment was initiated after the lapse of 72 hours. The therapeutic effect in terms of infection rates was evaluated by determining the proportion of infected erythrocytes in peripheral blood.
Used in the present test was a Pf3D7^0087N9 strain of Plasmodium falciparum, which was produced according to study described in Reference (1) shown below. Human erythrocytes were transplanted into female NSG (NOD-scid IL-2Rγnull) immunodeficient mice, and the proportion of human erythrocytes in all the erythrocytes in peripheral blood was maintained to be 40% or more throughout the test period. […] Specifically, 2 μL of peripheral blood collected from an infected mouse was stained with TER-119-Phycoeruthrine (mouse erythrocyte marker) and SYTO-16 (dye for nucleic acid staining), and analyzed by flow cytometry. […] 2008 May 21; 3(5):e2252. • (2) Jimenez-Diaz et al. Quantitative measurement of Plasmodium-infected erythrocytes in murine models of malaria by flow cytometry using bidimensional assessment of SYTO-16 fluorescence. […]

[2] = test system: 3D7 strain of Plasmodium falciparum (drug-sensitive strain); assay: in vitro antimalarial activity, p-LDH colorimetric protozoan growth assay, 3D7 strain; assay type: cell-based; settings: 72 hours culture, p-LDH colorimetry, read-out: 50% protozoan-growth-inhibitory concentration (IC50 value)
Protocol: (§1) With use of 3D7 and K1 strains, which are a drug-sensitive strain and drug-resistant strain of Plasmodium falciparum, respectively, provided by The Tropical Disease Research Center, Kitasato University, the in vitro antimalarial activity of the compound for these plasmodia was determined. In culture of the test protozoan parasites, maintenance and subculture were performed with a partially modified version of a method by Trager and Jensen (Trager, W and Jensen, J.: Human malaria parasites in continuous culture, Science, 193:673-677, (1976)), and the resultants were used. […]
(§2) The protozoan infection rate was maintained within the range of 0.25 to 10%. Drug sensitivity test was carried out with a modified version of a method by Desjardins et al. (Desjardins, R. E., Canfield, C. J., Haynes, D. E. and Chulay, J. D.: Quantitative assessment of antimalarial activity in vitro by a semiautomated microdilution technique. Antimicrob. Agents Chemother., 16:710-718 (1979)). […] Blue formazan, a product generated through the reaction, was detected by measuring absorbance at a measurement wavelength of 660 nm by using a microplate reader to determine the presence or absence of protozoan growth by colorimetry. […]

[3] = test system: K1 strain of Plasmodium falciparum (drug-resistant strain); assay: in vitro antimalarial activity, p-LDH colorimetric protozoan growth assay, K1 strain; assay type: cell-based; settings: K1, 72 h, read-out: 50% protozoan-growth-inhibitory concentration (IC50 value)
Protocol: as §1, §2

In the case of `C[C@@H](Oc1ccc(CNC(=O)c2cc(-n3cnc(C(F)(F)F)n3)c(N)nc2N)cc1)C(F)(F)F` [compound (I), 2,6-diamino-5-[3-(trifluoromethyl)-1H-1,2,4-triazol-1-yl]-N-(4-{[(2R)-1,1,1-trifluoropropan-2-yl]oxy}benzyl)pyridine-3-carboxamide], the “ED90 (daily dose with which the infection rate on day 7 after the infection decreased by 90% from that in a nontreatment group)” value [1] is reported as 3.2 mg/kg/day, the IC50 [2] is reported as 0.026 µg/mL and 53 nM and the IC50 [3] is reported as 0.043 µg/mL and 89 nM.
